In ChEMBL document CHEMBL2057164, “Head-to-head prenyl tranferases: anti-infective drug targets” (J Med Chem, 2012) one finds Ki data, which are given here for 1 compound.

SMILES strings stand for the structures.

A short description of the experiment: Inhibition of Trypanosoma cruzi squalene synthase.

By Ki is commonly meant a dissociation constant, usually derived from enzyme kinetics or from competition with a known ligand. Read a low Ki as tighter binding. With `CC(C)=CCC/C(C)=C/CNCCNC1C2CC3CC(C2)CC1C3` (stereo unspecified) [SQ109], the affinity, expressed as Ki, was 1200 nM.
